Assay results: PubChem BioAssay AID248 (DTP/NCI, 2004)
Where “and” joins values, the source holds several entries; their conditions need not be identical. Equal values may be shown once. Toxic doses and inconclusive results are not listed. Rule as the data show it: active = T/C of 150% or more; inactive = T/C below 125%.

Test system: L1210 leukemia ip in BDF1 mice, survival T/C
Assay: NCI In Vivo Anticancer Drug Screen. Data for tumor model L1210 Leukemia (intraperitoneal) in B6D2F1 (BDF1) mice
Conditions: endpoint: mean survival time, higher = longer survival
In short: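 Read-out is survival time, reported as the treated-group measurement over the vehicle-control measurement.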

[1] = dose: 100.0 mg/kg/injection, schedule: Q04DX002 (ip), vehicle: Klucel (hydroxypropylcellulose) (HPC)
[2] = dose: 200.0 mg/kg/injection, schedule: Q04DX002 (ip), vehicle: Klucel (hydroxypropylcellulose) (HPC)
[3] = dose: 400.0 mg/kg/injection, schedule: Q04DX002 (ip), vehicle: Klucel (hydroxypropylcellulose) (HPC)
[4] = dose: 100.0 mg/kg/injection, schedule: Q04DX003 (ip), vehicle: Klucel (hydroxypropylcellulose) (HPC)
[5] = dose: 200.0 mg/kg/injection, schedule: Q04DX003 (ip), vehicle: Klucel (hydroxypropylcellulose) (HPC)
[6] = dose: 400.0 mg/kg/injection, schedule: Q04DX003 (ip), vehicle: Klucel (hydroxypropylcellulose) (HPC)
[7] = dose: 100.0 mg/kg/injection, schedule: Q01DX009 (ip), vehicle: Klucel (hydroxypropylcellulose) (HPC)
[8] = dose: 200.0 mg/kg/injection, schedule: Q01DX009 (ip), vehicle: Klucel (hydroxypropylcellulose) (HPC)
[9] = dose: 400.0 mg/kg/injection, schedule: Q01DX009 (ip), vehicle: Klucel (hydroxypropylcellulose) (HPC)
[10] = dose: 100.0 mg/kg/injection, schedule: Q01DX009 (ip), vehicle: saline with Tween-80
[11] = dose: 100.0 mg/kg/injection, schedule: Q04DX003 (ip), vehicle: saline with Tween-80
[12] = dose: 200.0 mg/kg/injection, schedule: Q01DX009 (ip), vehicle: saline with Tween-80
[13] = dose: 200.0 mg/kg/injection, schedule: Q04DX003 (ip), vehicle: saline with Tween-80
[14] = dose: 400.0 mg/kg/injection, schedule: Q01DX009 (ip), vehicle: saline with Tween-80
[15] = dose: 100.0 mg/kg/injection, schedule: Q01DX001 (ip), vehicle: saline
[16] = dose: 200.0 mg/kg/injection, schedule: Q01DX001 (ip), vehicle: saline
[17] = dose: 100.0 mg/kg/injection, schedule: Q01DX001 (ip), vehicle: saline with Tween-80
[18] = dose: 200.0 mg/kg/injection, schedule: Q01DX001 (ip), vehicle: saline with Tween-80
[19] = dose: 400.0 mg/kg/injection, schedule: Q01DX001 (ip), vehicle: saline with Tween-80
[20] = dose: 100.0 mg/kg/injection, schedule: Q04DX003 (ip), vehicle: saline
[21] = dose: 200.0 mg/kg/injection, schedule: Q04DX003 (ip), vehicle: saline
[22] = dose: 400.0 mg/kg/injection, schedule: Q04DX003 (ip), vehicle: saline

Measured: T/C

Cc1ccc(S(=O)(=O)N(Cc2cccc([N+](=O)[O-])c2)c2ccc(C(=O)O)cc2)cc1
inactive: [1] 91 % of control | [2] 98 % of control | [3] 102 % of control

Nc1c(Br)cc([N+](=O)[O-])cc1Br
inactive: [4] 111 % of control | [5] 95 % of control | [6] 105 % of control

Cc1cccc(OCCOC(=O)Nc2ccccc2F)c1
inactive: [7] 103 % of control | [8] 93 % of control | [9] 106 % of control

CCOC(=O)C(C)(C)CC(=O)COC
inactive: dose: 100.0 mg/kg/injection, schedule: Q01DX001 (ip), vehicle: acetone 98 % of control | dose: 100.0 mg/kg/injection, schedule: Q01DX009 (ip), vehicle: acetone 95 % of control | dose: 200.0 mg/kg/injection, schedule: Q01DX001 (ip), vehicle: acetone 100 % of control | dose: 200.0 mg/kg/injection, schedule: Q01DX009 (ip), vehicle: acetone 90 % of control | dose: 400.0 mg/kg/injection, schedule: Q01DX001 (ip), vehicle: acetone 94 % of control | dose: 400.0 mg/kg/injection, schedule: Q01DX009 (ip), vehicle: acetone 105 % of control

CC(=O)NC1=C(Nc2ccc(-c3ccc(NC4=C(NC(C)=O)C(=O)c5ccccc5C4=O)cc3)cc2)C(=O)c2ccccc2C1=O
inactive: dose: 3.12 mg/kg/injection, schedule: Q04DX003 (ip), vehicle: saline 96 % of control | dose: 4.5 mg/kg/injection, schedule: Q01DX009 (ip), vehicle: saline 101 % of control | dose: 6.25 mg/kg/injection, schedule: Q04DX003 (ip), vehicle: saline 98 % of control | dose: 9.0 mg/kg/injection, schedule: Q01DX009 (ip), vehicle: saline 101 % of control | dose: 12.5 mg/kg/injection, schedule: Q01DX001 (ip), vehicle: saline 95 % of control | dose: 12.5 mg/kg/injection, schedule: Q04DX003 (ip), vehicle: saline 98 % of control | dose: 18.0 mg/kg/injection, schedule: Q04DX003 (ip), vehicle: saline 87 % of control

[O-][n+]1c(CN2CCCCC2)nc2cccc3c2c1-c1ccccc1-3
inactive: [10] 97 % of control | [11] 101 % of control | [12] 100 % of control | [13] 101 % of control | [14] 107 % of control | dose: 400.0 mg/kg/injection, schedule: Q04DX003 (ip), vehicle: saline with Tween-80 100 % of control

COc1cc2c(cc1OC)N(C(C)=O)Cc1cccn1C2
inactive: dose: 12.5 mg/kg/injection, schedule: Q04DX002 (ip), vehicle: Klucel (hydroxypropylcellulose) (HPC) 94 % of control | dose: 25.0 mg/kg/injection, schedule: Q04DX002 (ip), vehicle: Klucel (hydroxypropylcellulose) (HPC) 94 % of control | dose: 50.0 mg/kg/injection, schedule: Q04DX002 (ip), vehicle: Klucel (hydroxypropylcellulose) (HPC) 94 % of control

CCOC(=O)NCCBr
inactive: [7] 102 % of control | [4] 101 % of control | [8] 102 % of control | [5] 106 % of control | [9] 100 % of control | [6] 94 % of control

O=P(NC12CC3CC(CC(C3)C1)C2)(Oc1ccccc1)Oc1ccccc1
inactive: [4] 101 % of control | [5] 97 % of control | [6] 87 % of control

ONc1ccccn1
inactive: [15] 95 % of control | [16] 95 % of control

CCCCCCCCCCCCCC(CCCCCCCCCCCC)CCCCCCCCCCCC
inactive: [17] 92 % of control | [18] 87 % of control | [19] 87 % of control

Cc1cc2c(c(Cl)n1)C(=O)OC2=O
inactive: dose: 75.0 mg/kg/injection, schedule: Q01DX001 (ip), vehicle: other 95 % of control | dose: 150.0 mg/kg/injection, schedule: Q01DX001 (ip), vehicle: other 95 % of control | dose: 300.0 mg/kg/injection, schedule: Q01DX001 (ip), vehicle: other 103 % of control

COc1ccc(NC(=O)Nc2cccc(O)c2)c(OC)c1
inactive: [7] 100 % of control | [8] 96 % of control | [9] 100 % of control

Cn1nc(C#N)c2c(N)ncnc21
inactive: [15] 104 % of control | [16] 104 % of control | dose: 400.0 mg/kg/injection, schedule: Q01DX001 (ip), vehicle: saline 101 % of control

CC(C)(C)NC(C1=CC(C)(C)c2ccccc2C1=O)c1ccccc1 (stereo unspecified)
inactive: [7] 98 % of control | [4] 110 % of control | [8] 104 % of control | [5] 102 % of control | [9] 101 % of control | [6] 102 % of control

O=C1NC(c2ccccc2Cl)Nc2ccccc21 (stereo unspecified)
inactive: dose: 50.0 mg/kg/injection, schedule: Q01DX009 (ip), vehicle: Klucel (hydroxypropylcellulose) (HPC) 103 % of control | [7] 101 % of control | dose: 150.0 mg/kg/injection, schedule: Q01DX009 (ip), vehicle: Klucel (hydroxypropylcellulose) (HPC) 97 % of control

CC1(C)Cc2nc3ccccc3nc2-c2ccccc21
inactive: [20] 95 % of control | [21] 90 % of control | [22] 100 % of control

S=c1[nH]c2cc(Cl)ccc2s1
inactive: [1] 93 % of control | [2] 96 % of control | [3] 86 % of control

CCCCC(=O)c1ccc(F)cc1
inactive: [7] 96 % of control | [4] 105 % of control | [8] 98 % of control | [5] 93 % of control | [9] 98 % of control | [6] 100 % of control

Brc1cccc2nc(/C=C\c3ccccc3)ccc12
inactive: dose: 100.0 mg/kg/injection, schedule: Q01DX001 (ip), vehicle: other 98 % of control | dose: 200.0 mg/kg/injection, schedule: Q01DX001 (ip), vehicle: other 95 % of control | dose: 400.0 mg/kg/injection, schedule: Q01DX001 (ip), vehicle: other 89 % of control

CC(C)(Br)C(=O)c1ccc(-c2ccccc2)cc1
inactive: dose: 25.0 mg/kg/injection, schedule: Q01DX009 (ip), vehicle: water 101 % of control | dose: 50.0 mg/kg/injection, schedule: Q01DX009 (ip), vehicle: water 101 % of control | [7] 89 % of control | dose: 100.0 mg/kg/injection, schedule: Q01DX009 (ip), vehicle: water 98 % of control | [4] 100 % of control | [8] 87 % of control | dose: 200.0 mg/kg/injection, schedule: Q01DX009 (ip), vehicle: water 95 % of control | [5] 94 % of control | [9] 92 % of control | dose: 400.0 mg/kg/injection, schedule: Q01DX009 (ip), vehicle: water 92 % of control | [6] 91 % of control

Cc1c(CN(C)C)cccc1C(=O)Nc1ccccc1
inactive: dose: 50.0 mg/kg/injection, schedule: Q01DX001 (ip), vehicle: saline 115 % of control | [16] 104 % of control

CCCCNC(=O)N(CC)c1cccc(C)c1
inactive: [1] 105 % of control | [2] 118 % of control | [3] 102 % of control

OC1C=NC=N1 (stereo unspecified)
inactive: [20] 92 % of control | [21] 109 % of control | [22] 95 % of control

COC(=O)C1C(O)CC2CCC1[N+]2(C)C (stereo unspecified)
inactive: [15] 96 % of control | [16] 100 % of control

N#C[SH2+].N#C[SH2+].N#C[SH2+].N#C[SH2+].[Cu+2].c1ccc(C[P+](c2ccccc2)(c2ccccc2)c2ccccc2)cc1
inactive: dose: 6.0 mg/kg/injection, schedule: Q01DX009 (ip), vehicle: saline 100 % of control

CNC(=O)N(C1CCCCC1)C1CCCCC1
inactive: [17] 109 % of control | [10] 94 % of control and 111 % of control | dose: 100.0 mg/kg/injection, schedule: Q04DX002 (ip), vehicle: saline with Tween-80 105 % of control and 108 % of control | [18] 109 % of control | [12] 86 % of control and 91 % of control | dose: 200.0 mg/kg/injection, schedule: Q04DX002 (ip), vehicle: saline with Tween-80 92 % of control and 108 % of control | [19] 108 % of control | [14] 101 % of control and 91 % of control | dose: 400.0 mg/kg/injection, schedule: Q04DX002 (ip), vehicle: saline with Tween-80 96 % of control and 108 % of control

CC(C)CP(=O)(CC(C)C)C1CCCCC1
inactive: [11] 97 % of control | [13] 99 % of control
